Reference: paper PMC6882824, “Engineering of chimeric peptides as antagonists for the G protein-coupled receptor, RXFP4” (Scientific Reports, 2019)
“Also recorded” adds a separate entry of the source.

Experiments:
RXFP4 [1] = target: T1, RXFP4 (Homo sapiens, UniProt Q8TDU9); test: Competition binding in CHO-K1-RXFP4 cells (Eu-DTPA-mINSL5); set-up: expressed in transfected cells; host or cells: CHO-K1 (ATCC), stably transfected; conditions: SEM
RXFP3 [2] = target: T2, RXFP3 (Homo sapiens, UniProt Q9NSD7); test: Competition binding in CHO-K1-RXFP3 cells (Eu-H3B1-22R); conditions: SEM
T2 construct: expressed in transfected cells; host or cells: CHO-K1 (ATCC), stably transfected
T2 sequence (Q9NSD7 1-469): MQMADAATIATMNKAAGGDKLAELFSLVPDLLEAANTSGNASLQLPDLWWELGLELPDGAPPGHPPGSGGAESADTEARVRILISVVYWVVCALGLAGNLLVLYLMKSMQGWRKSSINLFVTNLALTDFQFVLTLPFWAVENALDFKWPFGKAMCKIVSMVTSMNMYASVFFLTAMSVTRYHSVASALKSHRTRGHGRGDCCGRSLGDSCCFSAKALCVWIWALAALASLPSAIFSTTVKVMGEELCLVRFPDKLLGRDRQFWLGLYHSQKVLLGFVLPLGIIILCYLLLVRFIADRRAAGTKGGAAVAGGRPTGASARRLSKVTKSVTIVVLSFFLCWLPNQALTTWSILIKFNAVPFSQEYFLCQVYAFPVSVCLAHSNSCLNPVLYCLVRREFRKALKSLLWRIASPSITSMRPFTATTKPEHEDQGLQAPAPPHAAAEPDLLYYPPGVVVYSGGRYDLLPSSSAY
Procedure, shortened: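 Whole CHO-K1 cells stably expressing RXFP3 or RXFP4 were competed against 5 nM Eu-H3B1-22R (RXFP3) or 5 nM Eu-DTPA-mINSL5 (RXFP4), with europium time-resolved fluorescence as read-out. Specific binding fitted to one-site curves; triplicates, at least three independent experiments.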

RXFP3 [3] = target: T2, RXFP3; conditions: cited from earlier work
RXFP3 [4] = conditions: HEK-293s cells expressing rat and human RXFP3; cited from earlier work
RXFP3 [5] = target: T2, RXFP3; conditions: CRE-reporter gene assay; cited from earlier work
RXFP3 [6] = target: T2, RXFP3; test: cAMP antagonist assay against 10 nM analogue 2 in CHO-K1-RXFP3 cells; assay type: cell-based
Procedure, shortened: (§1)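 Transfected cells stimulated with forskolin (5 µM RXFP3, 1 µM RXFP4); agonist mode ±peptide for 6 h, expressed as % forskolin activity, with 0% set by 1 µM reference agonist. Antagonist mode: peptide for 10 min, then ~EC80 agonist for 6 h. Triplicates, ≥3 independent experiments, mean ± SEM.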

RXFP4 [7] = target: T1, RXFP4; test: cAMP antagonist assay against 16.6 nM analogue 13 in CHO-K1-RXFP4 cells; assay type: cell-based; set-up: expressed in transfected cells; host or cells: CHO-K1 (ATCC), stably transfected
Procedure, shortened: as §1

RXFP4 [8] = target: T1, RXFP4; test: cAMP agonist assay (inhibition of forskolin-induced cAMP, pCRE β-galactosidase reporter) in CHO-K1-RXFP4 cells; assay type: cell-based; set-up: expressed in transfected cells; host or cells: CHO-K1 (ATCC), stably transfected; conditions: CHO-K1-RXFP4 cells, inhibition of 1 µM forskolin-induced cAMP, 6 hours; mean ± SEM, n in cell
RXFP4 [9] = target: T1, RXFP4; set-up: expressed in transfected cells; method as in PMID 17606621; conditions: SK-N-MC/CRE-β-gal cells expressing human RXFP4; cited from earlier work
RXFP3 [10] = target: T2, RXFP3; test: cAMP agonist assay (inhibition of forskolin-induced cAMP, pCRE β-galactosidase reporter) in CHO-K1-RXFP3 cells; assay type: cell-based; conditions: CHO-K1-RXFP3 cells, inhibition of 5 µM forskolin-induced cAMP, 6 hours; mean ± SEM, n in cell
Procedure, shortened: as §1

RXFP3 [11] = conditions: SK-N-MC/CRE-β-gal cells expressing human RXFP3; cited from earlier work
Excerpt: Here we have chemically synthesized and pharmacologically characterized ΔR3/I5 for binding and cAMP potency in CHO cells stably expressing RXFP3 (CHO-RXFP3) or RXFP4 (CHO-RXFP4).

T1 sequence (Q8TDU9 whole entry): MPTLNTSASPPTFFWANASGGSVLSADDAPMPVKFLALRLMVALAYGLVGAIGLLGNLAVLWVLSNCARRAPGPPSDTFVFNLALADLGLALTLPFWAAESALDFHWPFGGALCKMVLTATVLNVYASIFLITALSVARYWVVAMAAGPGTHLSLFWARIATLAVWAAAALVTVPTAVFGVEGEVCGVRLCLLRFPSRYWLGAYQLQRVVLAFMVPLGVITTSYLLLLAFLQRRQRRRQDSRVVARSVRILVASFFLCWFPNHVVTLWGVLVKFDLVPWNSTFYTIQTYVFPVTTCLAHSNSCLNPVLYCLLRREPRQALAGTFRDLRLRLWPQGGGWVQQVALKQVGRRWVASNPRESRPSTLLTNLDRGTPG

Compound: CC[C@H](C)[C@@H]1NC(=O)[C@H](Cc2ccccc2)NC(=O)[C@H](CCC(=O)O)NC(=O)[C@H](CCCNC(=N)N)NC(=O)CNC(=O)[C@@H](NC(=O)[C@H](CC(C)C)NC(=O)[C@H](CCCNC(=N)N)NC(=O)[C@@H](NC(=O)CNC(=O)[C@H](Cc2ccc(O)cc2)NC(=O)[C@@H]2CCCN2C(=O)[C@H](C)NC(=O)[C@H](C)NC(=O)[C@@H](N)CCCNC(=N)N)C(C)C)CSSC[C@@H]2NC(=O)[C@@H](NC(=O)[C@H](CC(C)C)NC(=O)[C@@H](NC(=O)[C@H](CCC(N)=O)NC(=O)[C@H](CC(C)C)NC(=O)[C@H](CC(=O)O)NC(=O)[C@@H]3CCC(=O)N3)[C@@H](C)O)CSSC[C@H](NC(=O)CNC(=O)[C@H](CC(=O)O)NC(=O)[C@H]([C@@H](C)O)NC2=O)C(=O)N[C@@H](CO)C(=O)N[C@@H](CCSC)C(=O)N[C@@H]([C@@H](C)O)C(=O)N[C@@H](CC(=O)O)C(=O)N[C@@H](CC(C)C)C(=O)N[C@@H](CO)C(=O)N[C@@H](C)C(=O)N[C@@H](CC(C)C)C(=O)N[C@H](C(=O)O)CSSC[C@@H](C(=O)N[C@@H](CCCNC(=N)N)C(=O)O)NC(=O)[C@H]([C@@H](C)O)NC(=O)[C@H](Cc2ccccc2)NC(=O)[C@H]([C@@H](C)CC)NC(=O)[C@H](C(C)C)NC(=O)[C@H](C)NC(=O)[C@H](CCCNC(=N)N)NC1=O [ΔR3/I5, reference compound]
- Ki (RXFP4 [1]): 4.57 nM
- Ki (RXFP3 [2]): 9.77 nM
- Agonism of p38MAPK, ERK1/2 and cAMP signalling at RXFP3 (RXFP3 [3]): weak partial agonist
- Agonism in [35S]-GTPγS binding, cAMP activation and dynamic mass redistribution (RXFP3 [4]): partial agonist
- Agonist activity in CHO-RXFP3 cells (RXFP3 [5]): no agonist activity
- IC50 (RXFP3 [6]): 117 nM
- Emax (RXFP3 [6]; SEM, read-out: RXFP3 Emax (antagonist efficacy)): 100 ± 3.8%
- IC50 (RXFP4 [7]): 17.4 nM
- Emax (RXFP4 [7]; SEM, read-out: RXFP4 Emax (antagonist efficacy)): 36.7 ± 7.4%
- RXFP4 Activity pEC50 (RXFP4 [8]): Weak partial agonist (5)
- Agonist activity at RXFP4 (original report) (RXFP4 [9]): no agonist activity
- RXFP3 Activity pEC50 (RXFP3 [10]): unable to activate RXFP3; also recorded: No activity (3)
- Agonist activity at RXFP3 (original report) (RXFP3 [11]): no agonist activity
